Measurements from PubChem BioAssay (NCI).
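48-hour exposure; five concentrations; linearly interpolated endpoints. TGI is the concentration that stops growth completely.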

Legend:
Test in all cases: NCI-60 cell line screen, 48 h
SK-OV-3 ovarian = tested on: SK-OV-3 ovarian
LXFL 529 NSCLC = tested on: LXFL 529 NSCLC
SK-MEL-5 melanoma = tested on: SK-MEL-5 melanoma
UO-31 renal = tested on: UO-31 renal
RXF 393 renal = tested on: RXF 393 renal
SNB-75 CNS = tested on: SNB-75 CNS
NCI-H460 lung = tested on: NCI-H460 lung
HCC-2998 colon = tested on: HCC-2998 colon
NCI-H522 lung = tested on: NCI-H522 lung
UACC-62 melanoma = tested on: UACC-62 melanoma
K-562 leukemia = tested on: K-562 leukemia
MALME-3M melanoma = tested on: MALME-3M melanoma
RPMI-8226 leukemia = tested on: RPMI-8226 leukemia
M19-MEL melanoma = tested on: M19-MEL melanoma
MOLT-4 leukemia = tested on: MOLT-4 leukemia
SW-620 colon = tested on: SW-620 colon
ACHN renal = tested on: ACHN renal
HOP-92 NSCLC = tested on: HOP-92 NSCLC
SK-MEL-2 melanoma = tested on: SK-MEL-2 melanoma
IGROV1 ovarian = tested on: IGROV1 ovarian
OVCAR-8 ovarian = tested on: OVCAR-8 ovarian
NCI-H23 lung = tested on: NCI-H23 lung
LOX IMVI melanoma = tested on: LOX IMVI melanoma
NCI-H226 lung = tested on: NCI-H226 lung
EKVX NSCLC = tested on: EKVX NSCLC
UACC-257 melanoma = tested on: UACC-257 melanoma
HT29 colon = tested on: HT29 colon
OVCAR-3 ovarian = tested on: OVCAR-3 ovarian
HL-60(TB) leukemia = tested on: HL-60(TB) leukemia
U251 CNS = tested on: U251 CNS
HCT-116 colon = tested on: HCT-116 colon
KM12 colon = tested on: KM12 colon
COLO 205 colon = tested on: COLO 205 colon
M14 melanoma = tested on: M14 melanoma
TK-10 renal = tested on: TK-10 renal
SF-295 CNS = tested on: SF-295 CNS
SF-539 CNS = tested on: SF-539 CNS
A549 NSCLC = tested on: A549 NSCLC
KM20L2 colon = tested on: KM20L2 colon
OVCAR-5 ovarian = tested on: OVCAR-5 ovarian
CCRF-CEM leukemia = tested on: CCRF-CEM leukemia
SF-268 CNS = tested on: SF-268 CNS
786-0 renal = tested on: 786-0 renal
DMS 114 small cell lung = tested on: DMS 114 small cell lung
HOP-62 NSCLC = tested on: HOP-62 NSCLC
SK-MEL-28 melanoma = tested on: SK-MEL-28 melanoma
DLD-1 colon = tested on: DLD-1 colon
HCT-15 colon = tested on: HCT-15 colon
SR leukemia = tested on: SR leukemia
SNB-19 CNS = tested on: SNB-19 CNS
SNB-78 CNS = tested on: SNB-78 CNS
CAKI-1 renal = tested on: CAKI-1 renal
SN12C renal = tested on: SN12C renal
OVCAR-4 ovarian = tested on: OVCAR-4 ovarian
XF 498 CNS = tested on: XF 498 CNS

`C/C(CC(=O)Nc1cccc([N+](=O)[O-])c1)=N/NC(N)=S` gave a TGI (SK-OV-3 ovarian) greater than 100 µM, a TGI (LXFL 529 NSCLC) greater than 100 µM and a TGI (SK-MEL-5 melanoma) greater than 100 µM. For the same molecule, the TGI (UO-31 renal) was greater than 100 µM, the TGI (RXF 393 renal) was greater than 100 µM and the TGI (SNB-75 CNS) was greater than 100 µM. For the same molecule, the TGI (NCI-H460 lung) was greater than 100 µM, the TGI (HCC-2998 colon) was greater than 100 µM and the TGI (NCI-H522 lung) was greater than 100 µM. It also gave a TGI (UACC-62 melanoma) greater than 100 µM, a TGI (K-562 leukemia) greater than 100 µM and a TGI (MALME-3M melanoma) greater than 100 µM. The TGI (RPMI-8226 leukemia) was greater than 100 µM, the TGI (M19-MEL melanoma) was greater than 100 µM and the TGI (MOLT-4 leukemia) was greater than 100 µM. For the same molecule, the TGI (SW-620 colon) was greater than 100 µM, the TGI (ACHN renal) was greater than 100 µM and the TGI (HOP-92 NSCLC) was greater than 100 µM. It also gave a TGI (SK-MEL-2 melanoma) greater than 100 µM, a TGI (IGROV1 ovarian) greater than 100 µM and a TGI (OVCAR-8 ovarian) greater than 100 µM. For the same molecule, the TGI (NCI-H23 lung) was greater than 100 µM, the TGI (LOX IMVI melanoma) was greater than 100 µM and the TGI (NCI-H226 lung) was greater than 100 µM. It also gave a TGI (EKVX NSCLC) greater than 100 µM, a TGI (UACC-257 melanoma) greater than 100 µM and a TGI (HT29 colon) greater than 100 µM. It also gave a TGI (OVCAR-3 ovarian) greater than 100 µM, a TGI (HL-60(TB) leukemia) greater than 100 µM and a TGI (U251 CNS) greater than 100 µM. For the same molecule, the TGI (HCT-116 colon) was greater than 100 µM, the TGI (KM12 colon) was greater than 100 µM and the TGI (COLO 205 colon) was greater than 100 µM. The TGI (M14 melanoma) was greater than 100 µM, the TGI (TK-10 renal) was greater than 100 µM and the TGI (SF-295 CNS) was greater than 100 µM. The TGI (SF-539 CNS) was greater than 100 µM, the TGI (A549 NSCLC) was greater than 100 µM and the TGI (KM20L2 colon) was greater than 100 µM. It also gave a TGI (OVCAR-5 ovarian) greater than 100 µM, a TGI (CCRF-CEM leukemia) greater than 100 µM and a TGI (SF-268 CNS) greater than 100 µM. It also gave a TGI (786-0 renal) greater than 100 µM, a TGI (DMS 114 small cell lung) greater than 100 µM and a TGI (HOP-62 NSCLC) greater than 100 µM. The TGI (SK-MEL-28 melanoma) was greater than 100 µM and the TGI (DLD-1 colon) was greater than 100 µM.
`Nc1nc(N)c(CCCCc2ccccc2)c(/C=C/c2ccc([N+](=O)[O-])cc2)n1` was tested, and the TGI (SK-OV-3 ovarian) was 39.1 µM, the TGI (HCT-15 colon) was 7.09 µM and the TGI (SK-MEL-5 melanoma) was 16.3 µM. For the same molecule, the TGI (SR leukemia) was 4.85 µM, the TGI (UO-31 renal) was 8.51 µM and the TGI (SNB-19 CNS) was 64.7 µM. It also gave a TGI (SNB-75 CNS) of 9.87 µM, a TGI (NCI-H460 lung) of 39.5 µM and a TGI (HCC-2998 colon) of 9.04 µM. The TGI (SNB-78 CNS) was 12.8 µM, the TGI (NCI-H522 lung) was 5.57 µM and the TGI (UACC-62 melanoma) was 7.46 µM. The TGI (MALME-3M melanoma) was 9.17 µM, the TGI (RPMI-8226 leukemia) was 19 µM and the TGI (M19-MEL melanoma) was 30.3 µM. For the same molecule, the TGI (MOLT-4 leukemia) was 4.16 µM, the TGI (CAKI-1 renal) was 31.6 µM and the TGI (SW-620 colon) was 5.91 µM. The TGI (ACHN renal) was 18.2 µM, the TGI (HOP-92 NSCLC) was 2.21 µM and the TGI (SK-MEL-2 melanoma) was 10.8 µM. The TGI (IGROV1 ovarian) was 20.2 µM, the TGI (OVCAR-8 ovarian) was 12.7 µM and the TGI (NCI-H23 lung) was 33.4 µM. The TGI (LOX IMVI melanoma) was 13.5 µM, the TGI (NCI-H226 lung) was 55.6 µM and the TGI (EKVX NSCLC) was greater than 100 µM. The TGI (UACC-257 melanoma) was 22.2 µM, the TGI (HT29 colon) was 16.2 µM and the TGI (OVCAR-3 ovarian) was 8.4 µM. It also gave a TGI (HL-60(TB) leukemia) of 3.14 µM, a TGI (U251 CNS) of 11.4 µM and a TGI (HCT-116 colon) of 6.52 µM. For the same molecule, the TGI (KM12 colon) was 10.8 µM, the TGI (SN12C renal) was 8.96 µM and the TGI (COLO 205 colon) was 47.6 µM. It also gave a TGI (M14 melanoma) of 9.24 µM, a TGI (TK-10 renal) of 6.72 µM and a TGI (SF-295 CNS) of 14.5 µM. It also gave a TGI (SF-539 CNS) of 5.62 µM, a TGI (A549 NSCLC) of 19.3 µM and a TGI (OVCAR-4 ovarian) of 18.4 µM. It also gave a TGI (KM20L2 colon) of 20.6 µM, a TGI (OVCAR-5 ovarian) of 15.8 µM and a TGI (CCRF-CEM leukemia) of 6.01 µM. For the same molecule, the TGI (SF-268 CNS) was 48.2 µM, the TGI (786-0 renal) was 7.34 µM and the TGI (DMS 114 small cell lung) was 4.29 µM. For the same molecule, the TGI (HOP-62 NSCLC) was 12.4 µM, the TGI (XF 498 CNS) was 3.74 µM and the TGI (SK-MEL-28 melanoma) was 12.8 µM. For the same molecule, the TGI (DLD-1 colon) was greater than 100 µM.
